Measurements as given in ChEMBL document CHEMBL3044714, “Studies on fused heterocyclic 3,6-disubstituted-1,2,4-triazolo-1,3,4-thiadiazoles: synthesis and biological evaluation” (Med Chem Res, 2011).

What was measured:
[1] = test system: Rattus norvegicus; assay: Induction of lipid peroxidation in fasted Rattus norvegicus Wistar (rat) assessed as malondialdehyde level per 100 mg gastric mucosal tissue at 60 mg/kg, po measured after 17 hr by thiobarbuteric acid method; assay type: organism-based, Gastric mucosa; parameters: dose 60 mg/kg, route oral; conditions: in vivo
[2] = test system: Rattus norvegicus; assay: Ulcerogenic activity in fasted Rattus norvegicus Wistar (rat) assessed as ulcer index at 60 mg/kg, po measured after 17 hr; assay type: toxicity, organism-based; parameters: dose 60 mg/kg, route oral; conditions: in vivo
[3] = test system: Rattus norvegicus; assay: Anti-inflammatory activity in Rattus norvegicus Wistar (rat) assessed as inhibition of carrageenan-induced paw edema at 20 mg/kg, po administered 30 min prior to carrageenan-induced measured after 3 hr relative to control; assay type: functional
[4] = test system: Rattus norvegicus; assay: Anti-inflammatory activity in Rattus norvegicus Wistar (rat) assessed as inhibition of carrageenan-induced paw edema at 20 mg/kg, po administered 30 min prior to carrageenan-induced measured after 2 hr relative to control; assay type: functional
[5] = test system: Mus musculus; assay: Analgesic activity in Mus musculus albino (mouse) assessed as protection against acetic acid-induced writhing at 25 mg/kg, ip administered 20 min prior to acetic acid-challenge measured for 20 min relative to control; assay type: functional; conditions: route intraperitoneal

SMILES | Activity [1] [nmol] | UI [2] | inhibition in vivo at 20 mg/kg [3] [%] | inhibition in vivo at 20 mg/kg [4] [%] | Activity [5] [%]
COc1ccc2c(c1)c(CC(=O)O)c(C)n2C(=O)c1ccc(Cl)cc1 [INDOMETHACIN] | 7.95 | 2.25 | 66.9 | 50.7 | 
c1ccc(Cc2nnc3sc(Cc4cc5ccccc5[nH]4)nn23)cc1 |  |  | 41 | 36.7 | 
c1ccc(OCc2nnc3sc(Cc4cc5ccccc5[nH]4)nn23)cc1 | 3.15 | 0.83 | 50.5 | 32.1 | 40.22
O=C(NCc1nn2c(Cc3ccccc3)nnc2s1)c1ccccc1 |  |  | 28 | 21.2 | 
c1ccc(OCc2nnc3sc(Cc4cccc5ccccc45)nn23)cc1 |  |  | 24.6 | 18.5 | 
c1ccc(Cc2nnc3sc(-c4ccccc4Oc4ccccc4)nn23)cc1 | 3.26 | 0.91 | 56.3 | 41 | 30.43
Oc1ccccc1-c1nnc2sc(Cc3cccc4ccccc34)nn12 |  |  | 35 | 28 | 
CC(=O)Oc1ccccc1C(=O)O [ASPIRIN] |  |  |  |  | 61.96
O=C(CCc1nn2c(COc3ccccc3)nnc2s1)c1ccccc1 | 3.95 | 1.16 | 70.9 | 56.5 | 65.58
O=C(c1ccccc1)c1ccccc1-c1nn2c(COc3ccccc3)nnc2s1 | 4.42 | 1.25 | 63.3 | 54.8 | 43.48
O=C(NCc1nn2c(COc3ccccc3)nnc2s1)c1ccccc1 |  |  | 37.1 | 35.9 | 
O=C(NCc1nn2c(-c3ccccc3O)nnc2s1)c1ccccc1 |  |  | 32.3 | 24.4 | 
